13 molecules from ChEMBL document CHEMBL1130830, “Broad spectrum matrix metalloproteinase inhibitors: an examination of succinamide hydroxamate inhibitors with P1 C alpha gem-disubstitution” (Bioorg Med Chem Lett, 1998) can be followed below.

What is called IC50 is the concentration that inhibits the measured activity by half. A high value points to weaker potency.

The target of one test is Stromelysin-1 (Homo sapiens, UniProt P08254). Put plainly: Inhibition of Matrix metalloprotease-3 (MMP-3).
Test [1] deals with 72 kDa type IV collagenase (Homo sapiens, UniProt P08253). The experiment in a line: Inhibition of Matrix metalloprotease-2 (MMP-2).
A further test has as its target T1, Interstitial collagenase (Homo sapiens, UniProt P03956).
T1 sequence (P03956 whole entry): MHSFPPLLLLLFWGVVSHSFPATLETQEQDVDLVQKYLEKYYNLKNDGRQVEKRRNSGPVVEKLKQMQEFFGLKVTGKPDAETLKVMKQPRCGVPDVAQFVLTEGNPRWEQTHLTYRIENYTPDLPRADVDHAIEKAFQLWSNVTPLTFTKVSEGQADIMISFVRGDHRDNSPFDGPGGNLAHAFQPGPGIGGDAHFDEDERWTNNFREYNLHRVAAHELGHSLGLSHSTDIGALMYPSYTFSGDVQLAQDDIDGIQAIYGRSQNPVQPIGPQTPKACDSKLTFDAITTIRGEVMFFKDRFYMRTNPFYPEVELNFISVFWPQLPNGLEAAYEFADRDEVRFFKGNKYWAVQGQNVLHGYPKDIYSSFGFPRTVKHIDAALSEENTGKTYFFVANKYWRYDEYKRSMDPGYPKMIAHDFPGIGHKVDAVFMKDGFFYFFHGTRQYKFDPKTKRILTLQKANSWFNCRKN
Put plainly: Inhibition of matrix metalloprotease-1 (MMP-1).

Chain of 72 kDa type IV collagenase (P08253 whole entry): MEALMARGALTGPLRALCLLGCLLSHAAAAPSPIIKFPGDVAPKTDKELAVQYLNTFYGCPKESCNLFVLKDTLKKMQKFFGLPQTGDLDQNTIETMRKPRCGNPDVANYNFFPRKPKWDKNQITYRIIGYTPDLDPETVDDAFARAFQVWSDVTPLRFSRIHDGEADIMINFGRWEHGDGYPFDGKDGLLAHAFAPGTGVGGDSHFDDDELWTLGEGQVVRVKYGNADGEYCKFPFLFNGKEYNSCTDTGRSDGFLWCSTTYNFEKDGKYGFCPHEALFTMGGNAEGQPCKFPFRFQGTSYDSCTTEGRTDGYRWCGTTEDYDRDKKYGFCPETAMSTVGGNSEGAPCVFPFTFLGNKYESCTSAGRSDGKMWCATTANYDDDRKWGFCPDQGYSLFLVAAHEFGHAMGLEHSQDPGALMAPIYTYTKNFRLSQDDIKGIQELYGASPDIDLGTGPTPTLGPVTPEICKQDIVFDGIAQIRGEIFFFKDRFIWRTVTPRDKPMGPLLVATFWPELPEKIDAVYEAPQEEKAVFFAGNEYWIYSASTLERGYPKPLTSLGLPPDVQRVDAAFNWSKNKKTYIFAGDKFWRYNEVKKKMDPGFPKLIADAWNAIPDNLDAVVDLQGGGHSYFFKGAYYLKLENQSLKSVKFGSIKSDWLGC
Chain of Stromelysin-1 (P08254 whole entry): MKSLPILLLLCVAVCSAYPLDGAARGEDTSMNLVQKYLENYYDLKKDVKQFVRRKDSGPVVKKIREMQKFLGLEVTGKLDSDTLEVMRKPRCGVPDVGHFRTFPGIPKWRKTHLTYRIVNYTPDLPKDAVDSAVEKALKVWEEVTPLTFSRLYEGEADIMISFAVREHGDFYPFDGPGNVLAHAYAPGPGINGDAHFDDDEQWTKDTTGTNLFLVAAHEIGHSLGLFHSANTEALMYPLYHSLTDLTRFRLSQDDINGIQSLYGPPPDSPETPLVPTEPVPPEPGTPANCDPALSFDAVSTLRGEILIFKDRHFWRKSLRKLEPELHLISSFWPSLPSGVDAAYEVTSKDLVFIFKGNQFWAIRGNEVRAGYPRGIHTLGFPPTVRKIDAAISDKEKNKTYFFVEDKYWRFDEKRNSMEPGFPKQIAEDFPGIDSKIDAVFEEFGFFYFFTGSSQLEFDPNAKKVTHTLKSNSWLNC

Consider `C=CCC(CC=C)(C(=O)NO)[C@@H](CC(C)C)C(=O)N[C@@H](Cc1ccccc1)C(=O)NC`, for which the IC50 against Stromelysin-1 amounted to 2.6 µM; in test [1] it was 0.11 µM; against Interstitial collagenase, 0.55 µM.
Consider `CNC(=O)[C@H](Cc1ccccc1)NC(=O)[C@H](CC(C)C)C1(C(=O)NO)CCCC1`, for which the 50% inhibitory concentration (IC50) worked out at 0.17 µM on Stromelysin-1, 0.05 µM in test [1] and 0.037 µM on Interstitial collagenase.
On to `C=CC[C@](C)(C(=O)NO)[C@@H](CC(C)C)C(=O)N[C@@H](CC1CCCCC1)C(=O)NCCc1ccccc1`, for which the results for the IC50 (against Stromelysin-1; in test [1]; against Interstitial collagenase) were 0.16 µM, 0.064 µM and 0.11 µM, respectively.
Taken in the same sequence, the figures for `C=CC[C@](C)(C(=O)NO)[C@@H](CC(C)C)C(=O)N[C@@H](CC1CCCCC1)C(=O)NCCc1ccc(S(N)(=O)=O)cc1` were 0.015 µM, 0.023 µM and 0.0069 µM.
Taken in the same sequence, the figures for `C=CC[C@@](C)(C(=O)NO)[C@@H](CC(C)C)C(=O)N[C@@H](Cc1ccccc1)C(=O)NC` were 0.42 µM, 0.066 µM and 0.052 µM.
Turning to `C=CC[C@](C)(C(=O)NO)[C@@H](CC(C)C)C(=O)N[C@H](C(=O)Nc1ccccc1)C(C)(C)C`, the values for the IC50 (against Stromelysin-1; in test [1]; at Interstitial collagenase) were 0.095 µM, 0.0062 µM and 0.05 µM, respectively.
For `CNC(=O)[C@H](Cc1ccccc1)NC(=O)[C@H](CC(C)C)[C@H](C)C(=O)NO` the same measures were 0.05 µM, 0.0013 µM and 0.0013 µM.
For `CNC(=O)[C@H](Cc1ccccc1)NC(=O)[C@H](CC(C)C)C(C)(C)C(=O)NO` the same measures were 0.17 µM, 0.0023 µM and 0.0094 µM.
For `C=CC[C@](C)(C(=O)NO)[C@@H](CC(C)C)C(=O)N[C@H](C(=O)NC)C(C)(C)C` the same measures were 0.48 µM, 0.0025 µM and 0.0027 µM.
Regarding `C=CC[C@](C)(C(=O)NO)[C@@H](CC(C)C)C(=O)N[C@@H](Cc1ccccc1)C(=O)Nc1ccccc1`, the IC50 on Stromelysin-1 was found to be 0.091 µM; in test [1], 0.052 µM; against Interstitial collagenase it was 0.12 µM.
For `C=CC[C@](C)(C(=O)NO)[C@@H](CC(C)C)C(=O)N[C@@H](Cc1ccccc1)C(=O)NC` the same measures were 0.025 µM, 0.0042 µM and 0.0031 µM.
For `C=CC[C@@H](C(=O)NO)[C@@H](CC(C)C)C(=O)N[C@@H](Cc1ccccc1)C(=O)NC` the same measures were 0.059 µM, 0.035 µM and 0.035 µM.
For `C=CCC(C(=O)NO)C(CC(C)C)C(=O)N[C@@H](Cc1ccccc1)C(=O)NC` (single isomer, unassigned) the same measures were 0.012 µM, 0.0018 µM and 0.0022 µM.
